In PubChem BioAssay AID1996:
In brackets after ≈: the same amount, converted by molar mass.

Settings: buffer; pH 7.4; 200.0 µM

| SMILES | solubility kinetic |
| --- | --- |
| CCN1CCN(c2cc(=O)n3ccccc3n2)CC1 | 32 µg/mL (≈ 124 µM) |
| COC(=O)c1cc(CSc2nc3ccccc3c(=O)n2C)oc1C | 4.4 µg/mL (≈ 12.8 µM) |
| N#Cc1c(CSCC(=O)O)cc(=O)n2c1[nH]c1ccccc12 | 46.9 µg/mL (≈ 150 µM) |
| Cc1ccccc1NS(=O)(=O)c1ccc(C(=O)N(C)CC(=O)Nc2ccccc2Br)cc1 | 73 µg/mL (≈ 141 µM) |
| CCOC(=O)c1[nH]c(C=O)c(C(=O)OCC)c1C | 20.7 µg/mL (≈ 81.7 µM) |
| Cc1onc(-c2c(F)cccc2Cl)c1C(=O)N=C(N)N1CC(C)OC(C)C1 (centres undefined) | 0.8 µg/mL (≈ 2.03 µM) |
| CC(C)c1ccc(NC(=O)N2C[C@H]3C[C@@H](C2)c2cccc(=O)n2C3)cc1 | > 52.7 µg/mL |
| CC(=O)NC(CC(=O)O)C(=O)O (centres undefined) | > 26.3 µg/mL |
| O=Cc1ccc(OCCCOc2cccc3cccnc23)cc1 | 37.7 µg/mL (≈ 123 µM) |
| COc1ccc(NC(=O)c2onc(C)c2Cl)cc1 | 10 µg/mL (≈ 37.5 µM) |
| CCN1CCN(C(=S)NC(CC(=O)c2ccccc2)c2ccccc2)CC1 (centres undefined) | 49.8 µg/mL (≈ 131 µM) |
| COc1ccc(NS(=O)(=O)c2ccc3oc(=O)ccc3c2)cc1 | > 49.7 µg/mL |
| COc1ccc(OC)c(NC(=O)CCC(=O)Oc2ccc(C)cc2)c1 | 49.1 µg/mL (≈ 143 µM) |
| CN1C(C(=O)Nc2ccccn2)=C(O)c2ccccc2S1(=O)=O | > 49.7 µg/mL |
| O=C(N/C(=C/c1ccco1)C(=O)N1CCOCC1)c1cccs1 | > 49.9 µg/mL |
| Cc1cccc(-c2noc(CNS(=O)(=O)c3ccccc3)n2)c1 | > 49.4 µg/mL |
| O=C(NN1CCOCC1)c1ccccc1 | > 30.9 µg/mL |
| O=C(COC(=O)CC1CCCC1)Nc1ccc(Cl)cn1 | 9.1 µg/mL (≈ 30.7 µM) |
| CC(=O)Nc1ccc(NC(=O)c2c([N+](=O)[O-])cnn2C)cc1 | > 45.5 µg/mL |
| N#Cc1c(C(F)(F)F)cc(=O)[nH]c1SCC(=O)O | > 41.7 µg/mL |
| O=C(NCc1ccco1)C1CC(O)CN1C(=O)Nc1ccccc1 (centres undefined) | > 49.4 µg/mL |
| CCOC(=O)CN=C/C(C(C)=O)=C(/C)O | > 32 µg/mL |
| COc1ccc(CCC(=O)Nc2cnc3ccccc3c2)cc1 | 1 µg/mL (≈ 3.26 µM) |
| COC(=O)c1sccc1NC(=S)Nc1ccc(OC)cc1 | 35.3 µg/mL (≈ 109 µM) |

| SMILES | solubility kinetic |
| --- | --- |
| COc1ccccc1N1CC=C(c2cccc([N+](=O)[O-])c2)NC1=O | 39.8 µg/mL (≈ 122 µM) |
| Cc1ccc(C)n1-c1ccc(C(=O)NCc2cccnc2)cc1 | > 45.8 µg/mL |
| Fc1ccc(Nc2nc3ccccc3s2)cc1 | 0.4 µg/mL (≈ 1.64 µM) |
| CC1CCCN(C(=O)COC(=O)Cc2c[nH]c3ccccc23)C1 (centres undefined) | > 47.2 µg/mL |
| O=C1NC(c2ccc(O)cc2)Nc2ccccc21 (centres undefined) | 29.2 µg/mL (≈ 122 µM) |
| Cc1ccc2[nH]c(C)c(CCNC(=O)NC3CCCCC3)c2c1 | 1 µg/mL (≈ 3.19 µM) |
| O=C(Nc1ccc(Br)cc1Cl)c1ccc(OCC2CCCO2)cc1 (centres undefined) | 2.8 µg/mL (≈ 6.82 µM) |
| C[Se]C[C@@H](N)C(=O)O.Cl | > 32.8 µg/mL |
| CC(=O)SC1CC(=O)N(c2ccc(C(C)(C)C)cc2)C1=O (centres undefined) | 5.7 µg/mL (≈ 18.7 µM) |
| O=C(COC(=O)C1CC(=O)N(Cc2ccco2)C1)Nc1nc(-c2ccc(F)cc2)cs1 (centres undefined) | 16.9 µg/mL (≈ 38.1 µM) |
| O=C(OCC(=O)N1CCCC1)c1cnc(Cl)c(Cl)c1 | > 45.5 µg/mL |
| CCNc1ccc(S(=O)(=O)N(C)C)cc1[N+](=O)[O-] | 23.1 µg/mL (≈ 84.5 µM) |
| Cc1cc2nc(-c3ccc[nH]c3=O)n(Cc3cccc(F)c3)c2cc1C | 1.3 µg/mL (≈ 3.74 µM) |
| O=C(c1cccc([N+](=O)[O-])c1)c1ccc2[nH]c(=O)[nH]c2c1 | 8 µg/mL (≈ 28.2 µM) |
| CC(=O)Nc1ccc(NC(=O)COC(=O)Cn2cnc3ccccc32)cc1 | > 55 µg/mL |
| O=C(Nc1nc2ccc(F)cc2s1)Oc1ccccc1 | 1.7 µg/mL (≈ 5.9 µM) |
| COc1cccc(N/C=C/C(=O)c2ccc(C)cc2)c1 | 2.4 µg/mL (≈ 8.98 µM) |
| O=C(CN1C(=O)NC2(CCCCCC2)C1=O)NC1CC1 | > 41.9 µg/mL |
| COc1ccc2[nH]c(C(=O)N(C)c3ccc(F)cc3F)cc2c1 | < 0.3 µg/mL |
| COc1ccc(CSc2ncnc3sccc23)cc1F | < 0.3 µg/mL |
| CCOc1ccc(S(=O)(=O)NCCCn2ccnc2)cc1 | 45.4 µg/mL (≈ 147 µM) |
| CCOc1ccccc1C1NC(=O)c2ccccc2O1 (centres undefined) | 35.2 µg/mL (≈ 131 µM) |
| CCOc1ccc(S(=O)(=O)N2CCN(C(=O)c3cc4ccccc4o3)CC2)cc1 | 6 µg/mL (≈ 14.5 µM) |
| O=C(CSc1ncnc2sccc12)Nc1ccccc1 | 6.9 µg/mL (≈ 22.9 µM) |

| SMILES | solubility kinetic |
| --- | --- |
| CC(=O)c1cccc(NC(=O)c2sc(Cl)nc2C)c1 | > 44.2 µg/mL |
| O=C(NCCN1CCCCC1)Nc1cccc(Cl)c1Cl | < 0.2 µg/mL |
| COc1cccc(C(O)Cc2nc3ccccc3n2C)c1OC (centres undefined) | > 46.9 µg/mL |
| NC(=S)Cc1ccccc1Cl | 25.2 µg/mL (≈ 136 µM) |
| CNc1cc(C)c(C#N)c2nc3ccccc3n12 | 2.6 µg/mL (≈ 11 µM) |
| COc1ccc(C(=O)Nc2ccccc2C(=O)Nc2cccnc2)cc1 | 8.8 µg/mL (≈ 25.3 µM) |
| NC(=O)C1CCCNC1 (centres undefined) | > 19.2 µg/mL |
| Cn1c(=O)c([N+](=O)[O-])c(-n2ccnc2)c2ccccc21 | 37.4 µg/mL (≈ 138 µM) |
| N[C@H](CSCc1ccccc1)C(=O)Nc1ccc([N+](=O)[O-])cc1 | 36.3 µg/mL (≈ 110 µM) |
| CCCc1cc(=O)oc2c(CN3CCN(C)CC3)c(O)ccc12 | 45.2 µg/mL (≈ 143 µM) |
| O=C(CC1CCCCC1)NCc1ccc(F)cc1 | 20.7 µg/mL (≈ 83 µM) |
| CS(=O)(=O)c1ccc(-c2csc(-c3cccnc3)n2)cc1 | 5.6 µg/mL (≈ 17.7 µM) |
| N#Cc1ccc(NC(=O)COC(=O)c2cccnc2Cl)cc1 | > 47.4 µg/mL |
| Cc1ccc(Nc2nc(C)c3c(n2)CC(C)CC3=O)c(C)c1 (centres undefined) | 1.7 µg/mL (≈ 5.76 µM) |
| N#Cc1c(-c2ccccc2)nc(N2CCN(Cc3ccccc3)CC2)[nH]c1=O | > 55.7 µg/mL |
| CCN(CC(=O)Nc1cc(Cl)cc(Cl)c1)CC(=O)NC1CCS(=O)(=O)C1 (centres undefined) | 52.3 µg/mL (≈ 124 µM) |
| O=C(c1cc2cc(Cl)ccc2oc1=O)N1CCCCCCC1 | 7.6 µg/mL (≈ 23.8 µM) |
| O=C(COC(=O)c1cnccn1)c1cccc([N+](=O)[O-])c1 | > 43.1 µg/mL |
| CCOC(=O)c1sc(NC(=O)C2CC(=O)N(c3ccc(OCC)cc3)C2)nc1C (centres undefined) | 9.9 µg/mL (≈ 23.7 µM) |
| CC(=O)c1cn(Cc2ccccc2C#N)c2ccccc12 | 7 µg/mL (≈ 25.5 µM) |
| Cc1csc(NC(=O)C2CC(=O)N(c3ccc(C)c(C)c3)C2)n1 (centres undefined) | 42.4 µg/mL (≈ 129 µM) |
| CC(C(=O)Nc1ccc(Cl)cc1)N1C(=O)NC2(CCCC2)C1=O (centres undefined) | 25.8 µg/mL (≈ 76.8 µM) |
| COc1cccc(C(=O)CC(=O)C(=O)Nc2ccc(C)cc2Cl)c1 | 8.1 µg/mL (≈ 23.4 µM) |
| O=S(=O)(c1ccc(-c2ccccn2)s1)N1CCC2(CC1)OCCO2 | 1.5 µg/mL (≈ 4.09 µM) |

| SMILES | solubility kinetic |
| --- | --- |
| O=C(/C=C/c1ccccc1)NC(=O)c1ccccc1O | 1.4 µg/mL (≈ 5.24 µM) |
| CC(C)c1ccc(/C=C2\SC(N3CCOCC3)=NC2=O)cc1 | 29.9 µg/mL (≈ 94.5 µM) |
| CC1C(=O)N2CCCc3cc(NC(=O)C(=O)NCc4cccnc4)cc1c32 (centres undefined) | > 54.7 µg/mL |
| CC(C)(C)OC(=O)CN1C(=O)NC2(CCCc3ccccc32)C1=O (centres undefined) | > 49.6 µg/mL |
| CCOc1ccccc1NC(=O)Nc1ccc(CC#N)cc1 | 37.8 µg/mL (≈ 128 µM) |
| O=C(OCC(=O)c1ccc[nH]1)c1ccc(Br)cc1 | 7.2 µg/mL (≈ 23.4 µM) |
| COc1ccc(S(=O)(=O)N2CCCCCC2)cc1NC(=O)CN1C(=O)CNC1=O | > 63.7 µg/mL |
| COc1cc(C(=O)OCC(=O)NCCCc2ccccc2)ccc1OCC(C)C | 1.2 µg/mL (≈ 3 µM) |
| N/C(=N\[N+](=O)[O-])N1CCN(C(=O)OC2CCCC2)CC1 | > 42.8 µg/mL |
| CN(C)c1ccc(C(=O)N2CCN(C(=O)C3CCCO3)CC2)cc1 (centres undefined) | > 49.7 µg/mL |
| CC1(C)C2CCC1(C)C(OC(=O)CNc1ccccc1)C2 (centres undefined) | 4.2 µg/mL (≈ 14.6 µM) |
| COCC(C)Nc1nc(C)c(C(C)=O)s1 (centres undefined) | > 34.2 µg/mL |
| CC(=O)Oc1ccc(C(=O)NCCc2ccccc2)cc1 | 21.5 µg/mL (≈ 75.9 µM) |
| CSc1ccccc1NC(=O)CN(C)CC(=O)c1[nH]c(C)c(C(C)=O)c1C | 6.7 µg/mL (≈ 17.3 µM) |
| COc1ccc(-c2nnc(SCC(=O)O)n2C)cc1OC | > 46.4 µg/mL |
| Cc1ccc(C(C)NC(=O)c2cccs2)cc1C (centres undefined) | 5.7 µg/mL (≈ 22 µM) |
| COc1ccc(/C(=N/Nc2ncnc3ccccc23)C(=O)O)cc1 | > 48.3 µg/mL |
| CCOC(=O)c1ccc(NC(=S)NCc2ccc(F)cc2)cc1 | 2.2 µg/mL (≈ 6.62 µM) |
| COc1ccccc1CNS(=O)(=O)c1cc(C(=O)NCC2CCCO2)c(Cl)cc1Cl (centres undefined) | > 71 µg/mL |
| Cn1ccnc1CC(O)(c1ccccc1)c1ccccc1 | 20.4 µg/mL (≈ 73.3 µM) |
| O=C1C2C3C=CC(CC3)C2C(=O)N1c1ccc(Cl)cc1 (centres undefined) | < 0.6 µg/mL |
| CC(C)(C)NC(=O)NC(=O)CSc1ncccn1 | > 40.2 µg/mL |
| CN1C(=O)N(c2ccc(Cl)cc2)C(C)(O)CC1(C)C (centres undefined) | > 42.4 µg/mL |
| Cn1cnnc1SCC(=O)Nc1ccc(N2CCOCC2)cc1 | > 50 µg/mL |

| SMILES | solubility kinetic |
| --- | --- |
| Cc1ccc(C(=O)OCC(=O)Nc2ccc(F)c(Cl)c2)o1 | 2.9 µg/mL (≈ 9.3 µM) |
| CCN(CC)S(=O)(=O)c1cccc(C(=O)Nc2cc(C)on2)c1 | 13.4 µg/mL (≈ 39.7 µM) |
| CC(=O)/C(C=Nc1noc(C)c1Br)=C(\C)O | 37.6 µg/mL (≈ 131 µM) |
| COc1cc2c(cc1OC)CN(CC(=O)Nc1ccc(F)cc1F)CC2 | 44 µg/mL (≈ 121 µM) |
| Cc1ccc(C(=O)C[n+]2cccc(C(N)=O)c2)cc1.[Br-] | > 50.3 µg/mL |
| COc1ccccc1/C=C/c1ccc2cccc(O)c2n1 | 11.2 µg/mL (≈ 40.4 µM) |
| Oc1cccc2ccc(/C=C/c3ccccc3Cl)nc12 | < 0.6 µg/mL |
| c1ccc(CCNc2nc(-c3ccncc3)nc3ccccc23)cc1 | 0.3 µg/mL (≈ 0.919 µM) |
| CC1(C)C(=O)OC(c2ccc([N+](=O)[O-])cc2)C(C)(C)C1=O (centres undefined) | 2.5 µg/mL (≈ 8.58 µM) |
| O=C(CSc1nccn1-c1cccc(F)c1)NC1CCCC1 | > 47.9 µg/mL |
| O=C(O)CCCN1C(=O)c2cccc3cccc(c23)C1=O | 31.8 µg/mL (≈ 112 µM) |
| Cc1ncc(CN2CCCC(C(=O)c3cccc(Cl)c3)C2)s1 (centres undefined) | 43.2 µg/mL (≈ 129 µM) |
| CC1SCC(NC(=O)c2ccccc2Cl)CS1 (centres undefined) | > 43.2 µg/mL |
| COc1ccc(C(CC(=O)Nc2nccs2)C(C)C)cc1 (centres undefined) | 33.7 µg/mL (≈ 111 µM) |
| CC(C)c1ccc(NC(=O)NCc2ccccn2)cc1 | > 40.4 µg/mL |
| CC1CCN(C(=O)COC(=O)c2ccc([N+](=O)[O-])o2)CC1 | > 44.4 µg/mL |
| C=CCn1c(CCNC(=O)c2ccco2)nc2ccccc21 | > 44.3 µg/mL |
| O=C(/C=C/c1ccc(OCCCF)cc1)N1CCOCC1 | > 44 µg/mL |
| Cc1cccc(N2C(=O)/C(=C/c3ccccn3)SC2=S)c1 | < 0.3 µg/mL |
| CC(C)Oc1ccc(C2CC(=O)NC2=O)cc1 (centres undefined) | > 35 µg/mL |
| O=C(O)C(=O)O.c1ccc2c(CCNC3CCCCC3)c[nH]c2c1 | > 49.9 µg/mL |
| COc1cc(C(=O)OCC(=O)N2CCCC2)cc2c1OCCO2 | > 48.2 µg/mL |
| COc1ccc(Nc2nc(C)cc(C)n2)cc1Cl.Cl | > 45 µg/mL |
